Columns and labels:
ΔF508-CFTR [1] = biological target: T1, ΔF508-CFTR (Homo sapiens, UniProt P13569, DEL508-508); assay: CFTR cell surface levels using HRP-tagged ΔF508-CFTR expressing CFBE cells, in the presence of a co-corrector; assay type: cell-based; settings: HRP-tagged ΔF508-CFTR expressing CFBE cells, in the presence of 3 μM co-corrector; for EC50: read-out: EC50
T1 construct: host or cells: CFBE41o-, doxycycline-inducible
Summary of the method: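 Cells were seeded with 0.5 μg/mL doxycycline and held 68 h at 37 °C. Test compounds plus 3 μM co-corrector (final 0.1% DMSO) were then added for 20 h at 33 °C. Washed cells received HRP substrate, and luminescence was normalized between DMSO and 3 μM co-corrector controls.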

ΔF508-CFTR [2] = biological target: T1, ΔF508-CFTR; assay: CFTR cell surface levels using HRP-tagged ΔF508-CFTR expressing CFBE cells, intrinsic corrector capacity; assay type: cell-based; settings: for EC50: read-out: EC50
Summary of the method: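 Here the cells express ΔF508-CFTR with horseradish peroxidase inserted in extracellular loop 4, so only rescued channel at the surface gives luminescent signal. Compounds act on their own, 20 h at the reduced temperature of 33 °C; values are percent activity relative to DMSO and a 3 μM corrector.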

[3] = HRP-tagged ΔF508-CFTR expressing CFBE cells, intrinsic corrector capacity (no co-corrector), 33° C., 20 hours
[4] = HRP-tagged ΔF508-CFTR CFBE41o- cells, compounds alone (intrinsic corrector capacity), 20 hours at 33° C., positive control 3 μM corrector
[5] = HRP-tagged ΔF508-CFTR CFBE41o- cells, compounds alone (intrinsic corrector capacity), 20 hours at 33° C.

T1 sequence (P13569 with tags, fused parts or gaps DEL508-508): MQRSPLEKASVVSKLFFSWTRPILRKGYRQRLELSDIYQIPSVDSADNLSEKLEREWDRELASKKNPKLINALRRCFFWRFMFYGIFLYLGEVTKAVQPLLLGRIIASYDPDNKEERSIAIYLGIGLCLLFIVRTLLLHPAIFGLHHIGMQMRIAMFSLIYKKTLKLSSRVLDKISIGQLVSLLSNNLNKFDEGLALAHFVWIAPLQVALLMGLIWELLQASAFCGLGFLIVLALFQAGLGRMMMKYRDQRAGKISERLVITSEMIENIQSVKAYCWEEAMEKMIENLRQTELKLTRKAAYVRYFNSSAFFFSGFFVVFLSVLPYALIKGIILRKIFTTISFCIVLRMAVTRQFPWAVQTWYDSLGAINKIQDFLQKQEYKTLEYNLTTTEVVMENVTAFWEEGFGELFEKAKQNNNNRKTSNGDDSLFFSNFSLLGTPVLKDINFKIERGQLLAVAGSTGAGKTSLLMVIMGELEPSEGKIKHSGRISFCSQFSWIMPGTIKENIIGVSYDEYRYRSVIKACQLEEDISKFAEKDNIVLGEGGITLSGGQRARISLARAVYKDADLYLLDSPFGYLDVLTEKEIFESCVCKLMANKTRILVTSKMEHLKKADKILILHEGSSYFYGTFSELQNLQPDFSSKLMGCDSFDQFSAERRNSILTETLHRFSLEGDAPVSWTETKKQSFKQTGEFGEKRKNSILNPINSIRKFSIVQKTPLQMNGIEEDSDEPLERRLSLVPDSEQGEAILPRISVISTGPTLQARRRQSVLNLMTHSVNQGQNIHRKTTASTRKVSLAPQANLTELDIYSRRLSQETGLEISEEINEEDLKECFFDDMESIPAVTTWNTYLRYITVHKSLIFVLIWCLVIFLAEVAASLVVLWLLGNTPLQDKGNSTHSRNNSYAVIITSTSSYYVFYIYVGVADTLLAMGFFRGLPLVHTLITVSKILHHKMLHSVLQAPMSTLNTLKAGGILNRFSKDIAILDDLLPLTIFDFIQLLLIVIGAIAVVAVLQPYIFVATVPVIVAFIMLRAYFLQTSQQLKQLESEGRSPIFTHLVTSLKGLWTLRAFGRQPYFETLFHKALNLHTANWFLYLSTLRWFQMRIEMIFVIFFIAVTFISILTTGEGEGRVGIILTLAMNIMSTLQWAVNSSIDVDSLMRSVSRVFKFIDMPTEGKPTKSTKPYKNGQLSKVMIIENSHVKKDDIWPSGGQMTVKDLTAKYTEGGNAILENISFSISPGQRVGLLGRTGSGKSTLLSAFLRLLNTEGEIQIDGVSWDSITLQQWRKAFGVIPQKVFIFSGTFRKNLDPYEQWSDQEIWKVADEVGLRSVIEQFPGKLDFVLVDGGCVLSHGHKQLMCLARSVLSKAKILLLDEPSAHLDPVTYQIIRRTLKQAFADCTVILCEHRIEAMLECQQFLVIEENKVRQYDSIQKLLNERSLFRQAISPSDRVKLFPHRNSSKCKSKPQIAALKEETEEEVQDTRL

| Compound | % Activation (ΔF508-CFTR [1]) | EC50 (ΔF508-CFTR [1]) | % Activation (ΔF508-CFTR [2]; [3]) | EC50 (ΔF508-CFTR [2]; [3]) | % Activation (ΔF508-CFTR [2]; [4]) | EC50 (ΔF508-CFTR [2]; [5]) |
| --- | --- | --- | --- | --- | --- | --- |
| CC(C)c1nn(-c2ccc(F)cc2)c2nc(C(=O)O)cc(N3CCCN(C4CCC4)CC3)c12 [compound 767, 4-(4-cyclobutyl-1,4-diazepan-1-yl)-1-(4-fluorophenyl)-3-(propan-2-yl)-1H-pyrazolo[3,4-b]pyridine-6-carboxylic acid] | 210.1% | 1670 nM | 59.96% | 1670 nM | – | – |
| CC1(COc2cc(C(=O)O)nc3c2c(C2CCC2)nn3-c2ccccc2)CC(F)(F)C1 [compound 476, 3-cyclobutyl-4-[(3,3-difluoro-1-methylcyclobutyl)methoxy]-1-phenyl-1H-pyrazolo[3,4-b]pyridine-6-carboxylic acid] | 297.8% | 386 nM | 121.45% | 513 nM | – | – |
| CCN(CC)CCCOc1cc(C(=O)O)nc2c1c(C1CCC1)nn2-c1ccccc1 [compound 624, 3-cyclobutyl-4-[3-(diethylamino)propoxy]-1-phenyl-1H-pyrazolo[3,4-b]pyridine-6-carboxylic acid] | 281.85% | 2210 nM | 98.14% | 3330 nM | – | – |
| O=C(O)c1cc(OC2CCOCC2)c2c(C3CCC3)nn(-c3ccccc3)c2n1 [compound 579, 3-cyclobutyl-4-[(oxan-4-yl)oxy]-1-phenyl-1H-pyrazolo[3,4-b]pyridine-6-carboxylic acid] | 263.5% | 267 nM | 97.37% | 238 nM | – | – |
| Cc1nn(-c2ccn(C)c(=O)c2)c2nc(C(=O)O)cc(-c3ccc(N4CCOCC4)cc3)c12 [compound 94, 3-methyl-1-(1-methyl-2-oxo-1,2-dihydropyridin-4-yl)-4-[4-(morpholin-4-yl)phenyl]-1H-pyrazolo[3,4-b]pyridine-6-carboxylic acid] | 119.4% | > 10000 nM | – | – | 3.061% | > 10000 nM |
| CC(C)c1nn(C2CCCCC2)c2nc(C(=O)O)cc(-c3ccc4c(c3)CNC4=O)c12 [compound 364, 1-cyclohexyl-4-(1-oxo-2,3-dihydro-1H-isoindol-5-yl)-3-(propan-2-yl)-1H-pyrazolo[3,4-b]pyridine-6-carboxylic acid] | 282.3% | 1640 nM | – | – | 118.28% | 2280 nM |
| N#CC1CCCN(C2CCN(c3cc(C(=O)O)nc4c3c(C3CCC3)nn4-c3ccc(F)cc3)CC2)C1 (stereo not shown) [compound 871, 4-(3-cyano[1,4′-bipiperidin]-1′-yl)-3-cyclobutyl-1-(4-fluorophenyl)-1H-pyrazolo[3,4-b]pyridine-6-carboxylic acid] | 681.7% | 156 nM | 355.1% | 275 nM | – | – |
| CC(C)c1nn(-c2ccc(F)cc2F)c2nc(C(=O)O)cc(-c3ccc(N4CCC(C#N)CC4)cc3)c12 [compound 327, 4-[4-(4-cyanopiperidin-1-yl)phenyl]-1-(2,4-difluorophenyl)-3-(propan-2-yl)-1H-pyrazolo[3,4-b]pyridine-6-carboxylic acid] | 335.63% | 241 nM | – | – | 176% | 369 nM |
| Cc1cc(-n2nc(C3CCC3)c3c(N4CCC(N5CCOCC5)CC4)cc(C(=O)O)nc32)ccc1F [compound 824, 3-cyclobutyl-1-(4-fluoro-3-methylphenyl)-4-[4-(morpholin-4-yl)piperidin-1-yl]-1H-pyrazolo[3,4-b]pyridine-6-carboxylic acid] | 535.65% | 277 nM | 338.9% | 180 nM | – | – |
| O=C(O)c1cc(N2CCN(CC3CC3)CC2)c2c(C3CCC3)nn(-c3ccccc3)c2n1 [compound 449, 3-cyclobutyl-4-[4-(cyclopropylmethyl)piperazin-1-yl]-1-phenyl-1H-pyrazolo[3,4-b]pyridine-6-carboxylic acid] | 298.55% | 918 nM | 139.3% | 1350 nM | – | – |
| O=C(O)c1cc(N2CC[C@H](O)[C@H](F)C2)c2c(C3CCC3)nn(-c3ccccc3)c2n1 [compound 509, 3-cyclobutyl-4-[(3R,4S)-3-fluoro-4-hydroxypiperidin-1-yl]-1-phenyl-1H-pyrazolo[3,4-b]pyridine-6-carboxylic acid] | 344.6% | 1670 nM | 123.6% | 1240 nM | – | – |
| CC(C)c1nn(-c2cccc(N(C)C)c2)c2nc(C(=O)O)cc(-c3cnc(N(C)C4CCOCC4)nc3)c12 [compound 200, 1-[3-(dimethylamino)phenyl]-4-{2-[methyl(oxan-4-yl)amino]pyrimidin-5-yl}-3-(propan-2-yl)-1H-pyrazolo[3,4-b]pyridine-6-carboxylic acid] | 594.2% | 514 nM | – | – | 330.83% | 438 nM |
| CC(C)Oc1nn(C2CCCCC2)c2nc(C(=O)O)cc(-c3ccc(N4CCN(C(C)C)CC4)cc3)c12 [compound 863, 1-cyclohexyl-3-[(propan-2-yl)oxy]-4-{4-[4-(propan-2-yl)piperazin-1-yl]phenyl}-1H-pyrazolo[3,4-b]pyridine-6-carboxylic acid] | 320.9% | 370 nM | 156.35% | 499 nM | – | – |
| CCN(CC)CCC1CCN(c2cc(C(=O)O)nc3c2c(C2CCC2)nn3-c2ccccc2)CC1 [compound 448, 3-cyclobutyl-4-{4-[2-(diethylamino)ethyl]piperidin-1-yl}-1-phenyl-1H-pyrazolo[3,4-b]pyridine-6-carboxylic acid] | 387.15% | 646 nM | 239.2% | 1080 nM | – | – |
| CC(C)c1nn(C2CCCCC2)c2nc(C(=O)O)cc(-c3cnc(N(C)C4CCN(C(=O)OC(C)(C)C)CC4)nc3)c12 [compound 374, 4-(2-{[1-(tert-butoxycarbonyl)piperidin-4-yl](methyl)amino}pyrimidin-5-yl)-1-cyclohexyl-3-(propan-2-yl)-1H-pyrazolo[3,4-b]pyridine-6-carboxylic acid] | 297.35% | 464 nM | – | – | 114.2% | 595 nM |
| CC(C)CN1C[C@@H]2CN(c3cc(C(=O)O)nc4c3c(C3CCC3)nn4-c3ccccc3)C[C@@H]2C1 [compound 692, 3-cyclobutyl-4-[(3aR,6aS)-5-(2-methylpropyl)hexahydropyrrolo[3,4-c]pyrrol-2(1H)-yl]-1-phenyl-1H-pyrazolo[3,4-b]pyridine-6-carboxylic acid] | 381.4% | 931 nM | 208.1% | 1670 nM | – | – |
| COCC(C)N1CCN(c2cc(C(=O)O)nc3c2c(C2CCC2)nn3-c2ccccc2)CC1 (stereo not shown) [compound 682, 3-cyclobutyl-4-[4-(1-methoxypropan-2-yl)piperazin-1-yl]-1-phenyl-1H-pyrazolo[3,4-b]pyridine-6-carboxylic acid] | 368.9% | 116 nM | 172.9% | 180 nM | – | – |
| COCCN(C)c1ccc(-c2cc(C(=O)O)nc3c2c(C(C)C)nn3-c2cccc(N3CCCC3)c2)cn1 [compound 253, 4-{6-[(2-methoxyethyl)(methyl)amino]pyridin-3-yl}-3-(propan-2-yl)-1-[3-(pyrrolidin-1-yl)phenyl]-1H-pyrazolo[3,4-b]pyridine-6-carboxylic acid] | 568.13% | 425 nM | – | – | 375.87% | 656 nM |
| CCCN1CCN(c2cc(C(=O)O)nc3c2c(C(C)C)nn3-c2ccc(F)cc2)CC1 [compound 777, 1-(4-fluorophenyl)-3-(propan-2-yl)-4-(4-propylpiperazin-1-yl)-1H-pyrazolo[3,4-b]pyridine-6-carboxylic acid] | 254.9% | 955 nM | 95% | 1670 nM | – | – |
| CN(C)c1ncc(-c2cc(C(=O)O)nc3c2c(C(C)(C)C)nn3C2CCCC2)cn1 [compound 91, 3-tert-butyl-1-cyclopentyl-4-[2-(dimethylamino)pyrimidin-5-yl]-1H-pyrazolo[3,4-b]pyridine-6-carboxylic acid] | 176.6% | 3340 nM | – | – | 43.54% | 3340 nM |
| Cc1nn(-c2ccccc2)c2nc(C(=O)O)cc(OCC(=O)N3CCCCC3)c12 [compound 383, 3-methyl-4-[2-oxo-2-(piperidin-1-yl)ethoxy]-1-phenyl-1H-pyrazolo[3,4-b]pyridine-6-carboxylic acid] | 129.7% | 5010 nM | – | – | 16.587% | 5010 nM |
| COCC1(C)CN(c2cc(C(=O)O)nc3c2c(C)nn3-c2ccccc2)C1 [compound 289, 4-[3-(methoxymethyl)-3-methylazetidin-1-yl]-3-methyl-1-phenyl-1H-pyrazolo[3,4-b]pyridine-6-carboxylic acid] | 172.8% | 1830 nM | – | – | 46.35% | 2510 nM |
